{
  "source": "patent US20240197760A1",
  "about": "“ACTIVATORS OF INTEGRATED STRESS RESPONSE PATHWAY FOR PROTECTION AGAINST FERROPTOSIS” (Burke Neurological Institute, priority 2021, published 2024)",
  "key": {"[1]": {"tested_on": "Trib3 promoter, Bdnf promoter", "assay": "Promoter reporter luciferase assay in primary neurons", "assay_type": "cell-based, mouse", "conditions": "2-DG 9 h treatment, reporter in mouse primary neurons", "description": "Primary neurons were co-transfected with various plasmids such as different Bdnf exon promoters each tagged with firefly luciferase or Trib3 promoter tagged with firefly luciferase and pTK-renilla luciferase plasmid at 1:10 ratio using Lipofectamine 2000 (Thermo Fisher Scientific, catalog number—11668019) according to the manufacturer's instructions to control for transfection efficiency. […] Thereafter, luciferase activity was measured using dual luciferase assay kit (Promega) and bioluminometer (MDS Analytical Technologies). Final luciferase activity was calculated by normalizing firefly luciferase activity with Renilla luciferase activity and then the valued were converted to fold change with respect to control."}, "MCAO mice": {"tested_on": "MCAO mice", "assay": "Filament MCAO model of transient ischemic stroke, sensory and motor function", "assay_type": "in vivo, mouse", "conditions": "10 mg/Kg i.p. from 24 h after MCAO, every day for 4 weeks", "description": "To assess the effect of 2-DG on the Bdnf gene expression, mice were injected with either saline or 2-DG (10 mg/Kg) intraperitoneally for 6 h and then mice were euthanized properly, and hippocampi were dissected out from mice brain. In order to assess functional improvement with 2-DG treatment after ischemic stroke, mice were injected with 2-DG (10 mg/Kg) intraperitoneally 24 h after induction of the stroke and then every day for four weeks. For assessing functional improvement with 2-DG treatment after hemorrhagic stroke, mice were injected with 2-DG (10 mg/Kg) intraperitoneally 24 h after induction of the stroke and then every day for three weeks. The ischemic stroke was induced using filament MCAO method as described before (Alim et al., 2019). In brief, all surgeries were conducted in sterile conditions. Male mice were anesthetized with isoflurane (5% induction, and 2% maintenance). A 2 cm incision was opened in the middle of the anterior neck. The right common carotid was temporarily ligated with 6-0 silk (Ethicon Inc.). Right unilateral MCAO was accomplished by inserting a Silicon rubber-coated monofilament (Doccol Corporation) into the internal carotid artery via the external carotid artery stump. Adequacy of MCAO was confirmed by monitoring cortical blood flow at the onset of the occlusion with a laser Doppler flowmetry probe affixed to the skull (Periflux System 5010; Perimed, Sweden). Animals were excluded if mean intra-ischemic laser Doppler flowmetry was >30% pre-ischemic baseline. […] The integrated sensorimotor function in both stimulation of vibrissae (sensory neglect) and rearing (motor response) was assessed through the corner turn test as described previously (Karuppagounder et al., 2016). […] The direction (left or right) in which the mouse turned around was recorded for each trial. […] The time from which the tape was applied to when the mouse successfully removed it was recorded for each paw. […] The latency to reach the ground were recorded. […]"}, "[2]": {"tested_on": "Creba, Crebb, Bdnf exon IV", "assay": "Plasticity gene expression in human i.p.s. derived mature cortical neurons", "assay_type": "cell-based", "conditions": "increasing concentrations, 6 h", "description": "Human iPSC line (C1-1) was previously generated from skin biopsy samples of newborn and had been fully characterized and passaged on MEF feeder layers (Wen et al. 2014). All studies followed institutional IRB and ISCRO protocols approved by University of Pennsylvania Perelman School of Medicine. Human iPSCs were differentiated into cortical neurons following the previously established protocol (Wen et al. 2014). Briefly, hiPSCs colonies were detached from the feeder layer with 1 mg/ml collagenase (Thermo Fisher Scientific) treatment for 30 min and suspended in embryonic body (EB) medium, consisting of bFGF-free iPSC medium supplemented with 2 μM Dorsomorphin (Tocris) and 2 μM A-83 (Tocris), in non-treated polystyrene plates for 4 days with a daily medium change. […]\nThe gene expression of Bndf exon IV, Creba and Crebb in human i.p.s. derived neurons were also assessed using two step qPCR. […] Quantitative RT-PCR was then performed using SYBR green (Applied Biosystems) and the StepOnePlus™ Real-Time PCR System (Applied Biosystems). Quantitative levels for all genes were normalized to the housekeeping gene GAPDH and expressed relative to the relevant control samples. […]"}, "[3]": {"conditions": "vs saline significant on days 21 and 28"}},
  "note": "Entries after “also recorded” stand apart in the source; their conditions may differ.",
  "data": [
    {"smiles": "OC[C@H]1OC(O)C[C@@H](O)[C@@H]1O", "note": "(stereo partly drawn) [2-DG, (4R,5S,6R)-6-(hydroxymethyl)oxane-2,4,5-triol]", "values": [
      {"measurement": "Trib3 promoter activity with or without mutation in ATF4 binding site", "setting": "[1]", "value": "ATF4 binding site mutation completely blocked the 2-DG led induction of Trib3 promoter activity"},
      {"measurement": "pole test after ischemic stroke", "setting": "MCAO mice; vs saline significant on day 21", "value": "significant improvement; also recorded: significant difference"},
      {"measurement": "corner test after ischemic stroke", "setting": "MCAO mice; [3]", "value": "significant improvement; also recorded: significant difference"},
      {"measurement": "tape removal test after ischemic stroke", "setting": "MCAO mice; [3]", "value": "significant improvement; also recorded: significant difference"},
      {"measurement": "gene plasticity response (Creba, Crebb, Bdnf exon IV mRNA)", "setting": "[2]", "value": "gene plasticity response of neurons was still the same"}
    ]}
  ]
}
